Measurements taken from patent US11744273B2, “Sweetness enhancing volatile compositions and methods of increasing perceived sweetness of a comestible” (University of Florida Research Foundation, Inc., priority 2016, dated 2023).

What was measured:
Assay type in all cases: in vivo, human
[1] = tested on: sourness; experiment: Blueberry sensory panels; PLS analysis, sourness (Table 7); conditions: response Sourness
Source text: Panelists were trained with the scaling methods and were encouraged to return for the remainder of the study. […] Panelists were also asked to rate the intensity of taste and flavor sensations of a hypothetical ideal blueberry on this scale. Each panelist received two to four berries of five to six genotypes in a single panel in a Williams design, which was generated by Compusense 5.6 (Compusense Inc., Guelph, Ontario, Canada). They were asked to eat the blueberries of each genotype at once, and to take a bite of cracker and sip of water in between samples. Ratings were recorded using Compusense software.
Soluble solids content (SSC), titratable acidity (TA), and volatiles were quantified as described above for tomato and strawberries. […] Integrated peak area of each signal was normalized for elution, fitted to relative pure chemical response, corrected for sample mass, and expressed as nanograms per gram fresh weight per hour (ng gFW-1 h-1). Response fitting was calculated using the response factor of pure chemical standards (Sigma-Aldrich, St. Louis, Mo.) run on the same instrument.
Pair-wise correlations and significance between sensory measurements and primary bio-chemical components were calculated, with panelist as a random effect. […] The inclusion of texture liking was evaluated independently given that no explanatory physical measure was made for sample texture. […]

[2] = tested on: overall liking; experiment: Blueberry sensory panels; PLS analysis, overall liking (Table 7); conditions: response Overall Liking
Procedure: (§1) Sensory analysis was conducted similar to described above for tomatoes and strawberries in Examples 1 and 3. […] Panelists were trained with the scaling methods and were encouraged to return for the remainder of the study. Panelists rated overall liking, texture liking, sweetness, sourness, and flavor intensity using hedonic general Labeled Magnitude Scales (gLMS) (−100 to +100; −100=greatest disliking of any kind, +100=greatest liking of any kind) and intensity gLMS (0 to +100; 0=no sensation, 100=most intense sensation of any kind), which allow for improved comparison between panelists and between years (see Bartoshuk, L. M., et al., 2004 and Bartoshuk, L. M., et al., 2005). […] Ratings were recorded using Compusense software.
(§2) Soluble solids content (SSC), titratable acidity (TA), and volatiles were quantified as described above for tomato and strawberries. […] Elutions were run on an Agilent 7890A Gas Chromatograph Flame Ionization Detector (GC-FID) DB-5 column (30 m length×[…]) for quantification and on an Agilent 7890A Gas Chromatograph coupled to an Agilent 5977A Mass Selective Detector (GC/MSD) for qualification (Agilent, Santa Clara, Calif.). Integrated peak area of each signal was normalized for elution, fitted to relative pure chemical response, corrected for sample mass, and expressed as nanograms per gram fresh weight per hour (ng gFW-1 h-1). […]

[3] = tested on: blueberry flavor intensity; experiment: Blueberry sensory panels; PLS analysis, blueberry flavor intensity (Table 7); conditions: response Flavor
Procedure: as §1, §2

[4] = tested on: sweetness; experiment: Blueberry sensory panels; PLS analysis, sweetness (Table 7); conditions: for PLS Coefficient: response Sweetness
Procedure: Sensory analysis was conducted similar to described above for tomatoes and strawberries in Examples 1 and 3. […] Panelists were trained with the scaling methods and were encouraged to return for the remainder of the study. Panelists rated overall liking, texture liking, sweetness, sourness, and flavor intensity using hedonic general Labeled Magnitude Scales (gLMS) (−100 to +100; −100=greatest disliking of any kind, +100=greatest liking of any kind) and intensity gLMS (0 to +100; 0=no sensation, 100=most intense sensation of any kind), which allow for improved comparison between panelists and between years (see Bartoshuk, L. M., et al., 2004 and Bartoshuk, L. M., et al., 2005). Panelists were also asked to rate the intensity of taste and flavor sensations of a hypothetical ideal blueberry on this scale. Each panelist received two to four berries of five to six genotypes in a single panel in a Williams design, which was generated by Compusense 5.6 (Compusense Inc., Guelph, Ontario, Canada). They were asked to eat the blueberries of each genotype at once, and to take a bite of cracker and sip of water in between samples. Ratings were recorded using Compusense software.
Soluble solids content (SSC), titratable acidity (TA), and volatiles were quantified as described above for tomato and strawberries. The volatiles were collected for two hours via dynamic headspace with HaySep Q 80-100 porous polymer adsorbent (Valco Instruments Company Inc., Houston, Tex.) and eluted with methylene chloride and nonyl acetate as an elution standard. Elutions were run on an Agilent 7890A Gas Chromatograph Flame Ionization Detector (GC-FID) DB-5 column (30 m length×[…]) for quantification and on an Agilent 7890A Gas Chromatograph coupled to an Agilent 5977A Mass Selective Detector (GC/MSD) for qualification (Agilent, Santa Clara, Calif.). Integrated peak area of each signal was normalized for elution, fitted to relative pure chemical response, corrected for sample mass, and expressed as nanograms per gram fresh weight per hour (ng gFW-1 h-1). Response fitting was calculated using the response factor of pure chemical standards (Sigma-Aldrich, St. Louis, Mo.) run on the same instrument.
Pair-wise correlations and significance between sensory measurements and primary bio-chemical components were calculated, with panelist as a random effect. Least Square Means (LSMeans) of the sensory data for each sample were obtained to account of the random effect of panelist. A partial least squares (PLS) analysis was constructed in JMP1 Pro 10 (SAS Institute Inc., Cary, N.C.) to reveal effectors of sensory ratings (see, e.g., Togari N., et al., 1995; Hough, G., et al., 1996; deKermadec, F., et al., 1997; Toscas, P. J., et al., 1999; and Tenenhaus, M., et al., 2005). The response variables (Y) considered corresponded to LSMeans of overall liking, sweetness, sourness, and blueberry flavor intensity. Glucose, fructose, sucrose, TA, pH, and 52 volatile compounds were considered as explanatory variables (X). The inclusion of texture liking was evaluated independently given that no explanatory physical measure was made for sample texture. […] The model was created without texture for analysis.
• Top six and bottom six biochemical measures explaining sensory responses as determined by partial least squares (PLS) analysis. […]

[5] = tested on: perceived sweetness intensity; experiment: Strawberry consumer panel; initial multiple regression of volatiles against perceived sweetness intensity independent of glucose, fructose or sucrose (Table 5); conditions: standard least squares; for FRUCTOSE t RATIO: sweetness intensity independent of fructose; for GLUCOSE t RATIO: sweetness intensity independent of glucose; for SUCROSE t RATIO: sweetness intensity independent of sucrose
Procedure: Step-wise multiple regressions of all volatile compounds against perceived intensity of sweetness is performed independent of either glucose, fructose, or sucrose concentration, separately (Table 5).
At least 100 grams or seven berries of each sample were removed from 4° C. dark overnight storage prior to volatile collection. Samples were homogenized in a blender prior to splitting into three 15 gram replicates for immediate capturing of volatile emission and remainder of sample frozen in N2 (I) and stored at −80° C. for later sugar and acid quantification.
Oven temperatures programmed from 40° C. (0.5 min hold) at 5° C. min^−1 to 250° C. (4 min hold). Signals captured with a flame ionization detector (FID) at 280° C. Peaks from FID signal were integrated manually with Chemstation B.04.01 software (Agilent Technologies, Santa Clara, Calif.). Volatile emission (ng gFW^−1 h^−1) calculated based on individual peak area relative to sample elution standard peak area.
All consumer panels were approved by the University of Florida Institutional Review Board. […] Ages of panelist ranged from 18 to 71, with a median age of 24. Panelists self-classified themselves as 98 White or Caucasian, 11 Black or African-American, 1 Native American, Alaska Native or Aleutian, 41 Asian/Pacific Islander, and 15 Other. […] Fresh, fully-ripe strawberry fruit was removed from overnight 4° C. dark storage and allowed to warm to room temperature prior to sensory analysis. Each panelist was given one to two whole strawberries for evaluation, depending on cultivar availability. Panelist took a bite of each sample, chewed, and swallowed it. Ratings for overall liking and liking for texture were scaled on hedonic general labeled magnitude scale (gLMS) in the context of all pleasure/displeasure experiences. […] Scales were employed to mediate valid comparisons across subjects and sessions.
For the first analysis, individual volatile compound concentrations were regressed using the “enter” method in SPSS Statistics (IBM Corp, Armonk, N.Y., USA).

[6] = tested on: strawberry flavor intensity; experiment: Strawberry consumer panel; correlation of volatiles with strawberry flavor intensity
Procedure: Quantification of volatiles in an elution was performed on an Agilent 7890A Series gas chromatograph (GC) (carrier gas; He at 3.99 mL min^−1; splitless injector, temperature 220° C., injection volume 2 μl) equipped with a DB-5 column ((5%-Phenyl)-methylpolysiloxane, 30 m length×250 μm i.d.×1 μm film thickness; Agilent Technologies, Santa Clara, Calif., USA). Oven temperatures programmed from 40° C. (0.5 min hold) at 5° C. min^−1 to 250° C. (4 min hold). Signals captured with a flame ionization detector (FID) at 280° C. Peaks from FID signal were integrated manually with Chemstation B.04.01 software (Agilent Technologies, Santa Clara, Calif.). Volatile emission (ng gFW^−1 h^−1) calculated based on individual peak area relative to sample elution standard peak area. GC-Mass Spectrometry (MS) analysis of elution on an Agilent 6890N GC in tandem with an Agilent 5975 MS (Agilent Technologies, Santa Clara, Calif., USA) and retention time comparison with authentic standards (Sigma Aldrich, St Louis, Mo., USA) for volatile identification (Schmelz, 2001).
All consumer panels were approved by the University of Florida Institutional Review Board. Over the course of two annual seasons 166 strawberry consumers (58 male, 108 female) were recruited to evaluate strawberry cultivars. Ages of panelist ranged from 18 to 71, with a median age of 24. Panelists self-classified themselves as 98 White or Caucasian, 11 Black or African-American, 1 Native American, Alaska Native or Aleutian, 41 Asian/Pacific Islander, and 15 Other. An average of 106 (range of 98-113) panelists evaluated between three and five cultivars per session (Tieman, 2012). Fresh, fully-ripe strawberry fruit was removed from overnight 4° C. dark storage and allowed to warm to room temperature prior to sensory analysis. Each panelist was given one to two whole strawberries for evaluation, depending on cultivar availability. Panelist took a bite of each sample, chewed, and swallowed it. Ratings for overall liking and liking for texture were scaled on hedonic general labeled magnitude scale (gLMS) in the context of all pleasure/displeasure experiences. Perceived intensity of sweetness, sourness, and strawberry flavor were scaled in context of all sensory experiences using sensory gLMS (Bartoshuk, 2003; Bartoshuk, 2005; Tieman, 2012). Scales were employed to mediate valid comparisons across subjects and sessions.
Means and standard errors for consumer, physical, and metabolite measurements were determined from all replicates using JMP (Version 8. SAS Institute Inc., Cary, N.C., 1989-2008). Bivariate analysis among individual measurements of samples allowed for linear fit, which includes summary of fit, analysis of variance, t-test, and correlation analysis for density ellipse. […]

SMILES | PLS Coefficient [1] | PLS Coefficient [2] | PLS Coefficient [3] | PLS Coefficient [4] | FRUCTOSE t RATIO [5] | GLUCOSE t RATIO [5] | SUCROSE t RATIO [5] | correlation with flavor intensity [6] | independent enhancement of perception of sweetness ([4]; multivariate regression analysis)
CC12CCC(CC1)C(C)(C)O2 [1,8-Cineole] | 0.1444 | −0.1912 | −0.0876 | −0.1925 |  |  |  |  | 
CCCC(=O)OCC [105-54-4] |  |  |  |  | 2.533 | 2.493 | 0.034 | significant positive correlation with flavor intensity | 
CCCC(=O)OC [623-42-7] |  |  |  |  | 1.455 | 1.452 | 0.419 | significant positive correlation with flavor intensity | 
COC1=C(C)OC(C)C1=O (stereo not drawn) [4077-47-8] |  |  |  |  | 2.414 | 2.185 | 0.299 | significant positive correlation with flavor intensity | 
C=CC(C)(O)CCC=C(C)C (stereo not drawn) [Linalool] |  |  |  |  |  |  |  | significant positive correlation with flavor intensity | 
C=C1CC[C@H]2O[C@]2(C)CC[C@@H]2[C@@H]1CC2(C)C [β-Caryophyllene oxide, β-caryophyllene oxide] |  | 0.1455 | 0.1527 | 0.1418 |  |  |  |  | independently enhancing perception of sweetness
